Test results reported in ChEMBL document CHEMBL1121629, “1-(Aminoalkyl)-6-aryl-4-H-s-triazolo[4,3-a][1,4]benzodiazepines with antianxiety and antidepressant activity” (1980).

Key:
Assay type in all cases: functional
Mus musculus [1] = organism: Mus musculus; assay: Tested for potentiation of gamma-butyrolactone induced sleep (gamma-B) in mice
Mus musculus [2] = organism: Mus musculus; assay: Prolongation of hypoxic survival time (HS) in mice
Mus musculus [3] = organism: Mus musculus; assay: Tested for antagonism of nicotine-induced death (D) in mice
Mus musculus [4] = organism: Mus musculus; assay: Tested for antagonism of pentylenetetrazole-induced clonic convulsions (P) in mice
Mus musculus [5] = organism: Mus musculus; assay: Tested for potentiation of yohimbine toxicity in aggregated mice(Y)
Mus musculus [6] = organism: Mus musculus; assay: Tested for stereotyped gnawing and licking behavior of mice pretreated with apomorphine (AG)
Mus musculus [7] = organism: Mus musculus; assay: Tested for antagonism of bicuculline-induced tonic-extensor convulsions (B) in mice
Mus musculus [8] = organism: Mus musculus; assay: Tested for antagonism of oxotremorine hypothermia (OX) in mice
Mus musculus [9] = organism: Mus musculus; assay: Tested for antagonism of nicotine-induced tonic extensor convulsions (TE) in mice

Row | SMILES | ED50 (Mus musculus [1]) [mg/kg] | ED50 (Mus musculus [2]) [mg/kg] | ED50 (Mus musculus [3]) [mg/kg] | ED50 (Mus musculus [4]) [mg/kg] | ED50 (Mus musculus [5]) [mg/kg] | ED50 (Mus musculus [6]) [mg/kg] | ED50 (Mus musculus [7]) [mg/kg] | ED50 (Mus musculus [8]) [mg/kg] | ED50 (Mus musculus [9]) [mg/kg]
1 | CN(C)Cc1nnc2n1-c1ccccc1C(c1ccccc1)=NC2 | 6.2 | > 50 | 2.8 | 6.2 | 35.4 | 3.1 | 50 | 12.5 | 2.5
2 | CCN(CC)CCCc1nnc2n1-c1ccc(Cl)cc1C(c1ccccc1)=NC2 | > 100 | > 50 | 13 | > 100 | 56 | 100 | > 100 | 31.6 | 11
3 | CN(C)CCCc1nnc2n1-c1ccc(Cl)cc1C(c1ccccc1)=NC2 | 36.6 | > 50 | 10 | 13.3 | > 100 | 42 | 56 | 75 | 10
4 | C=CCNCc1nnc2n1-c1ccc(Cl)cc1C(c1ccccc1)=NC2 | 1.9 | 6 | 0.28 | 3.7 | > 50 | > 50 | 3.1 | > 50 | 0.55
5 | CN(Cc1nnc2n1-c1ccc(Cl)cc1C(c1ccccc1)=NC2)C1CC1 | 1.9 | 6 | 0.28 | 3.7 | > 50 | > 50 | 3.1 | > 50 | 0.55
6 | CN(C)CCc1nnc2n1-c1ccc(Cl)cc1C(c1ccccc1Cl)=NC2 | 0.4 | 1.3 | 0.28 | 0.3 | 29.7 | 6.3 | 0.5 | > 50 | 0.28
7 | CC(N)Cc1nnc2n1-c1ccc(Cl)cc1C(c1ccccc1)=NC2 (stereo unspecified) | 35 | > 50 | 32 | > 50 | 21 | 25 | > 50 | 4.4 | 18
8 | C=CCN(C)Cc1nnc2n1-c1ccc(Cl)cc1C(c1ccccc1)=NC2 | 1.6 | > 50 | 1.1 | 4.4 | > 50 | > 50 | 3.7 | > 50 | 1.1
9 | C#CCN(C)Cc1nnc2n1-c1ccc(Cl)cc1C(c1ccccc1Cl)=NC2 | 0.1 | 0.4 | 0.045 | 0.021 | > 50 | 21 | 0.1 | > 50 | 0.036
10 | NOCc1nnc2n1-c1ccc(Cl)cc1C(c1ccccc1)=NC2 | 0.84 | 0.7 | 0.08 | 0.2 | > 50 | 42 | 0.2 | 12.5 | 0.1
11 | CN(C)Cc1nnc2n1-c1ccc(Cl)cc1C(c1ccccc1Cl)=NC2 | 0.3 | 0.1 | 0.06 | 0.1 | > 30 | 17.8 | 0.8 | > 30 | 0.06
12 | CN(C)CCc1nnc2n1-c1ccc(Cl)cc1C(c1ccccc1)=NC2 | 15 | > 20 | 2.5 | 25 | 30 | 28 | 21 | 6 | 2.8
13 | Clc1ccc2c(c1)C(c1ccccc1)=NCc1nnc(CNCC3CC3)n1-2 | 1.3 | 1 | 0.2 | 3.1 | 50 | > 50 | 1.9 | > 50 | 0.2
14 | CN(Cc1nnc2n1-c1ccc(Cl)cc1C(c1ccccc1)=NC2)CC1CC1 | 1.1 | 30 | 0.6 | 3.1 | > 50 | > 50 | 2.6 | > 50 | 0.4
15 | NCCc1nnc2n1-c1ccc(Cl)cc1C(c1ccccc1Cl)=NC2 | 21 | > 50 | 4.5 | 21 | > 50 | 14.9 | 25 | 29.7 | 4.5
16 | NCc1nnc2n1-c1ccc(Cl)cc1C(c1ccccc1)=NC2 | 0.8 | 0.8 | 0.28 | 0.35 | 35.4 | 2.6 | 14.9 | 29.7 | 0.22
17 | Clc1ccc2c(c1)C(c1ccccc1)=NCc1nnc(CNC3CC3)n1-2 | 1.1 | 40 | 0.28 | 3.1 | > 50 | > 50 | 1.6 | > 50 | 0.25
18 | Clc1ccc2c(c1)C(c1ccccc1)=NCc1nnc(CN3CCCC3)n1-2 | 7.4 | 2 | 4.5 | 17.7 | 100 | 14.9 | 12.5 | 56 | 3.6
19 | C#CCNCc1nnc2n1-c1ccc(Cl)cc1C(c1ccccc1)=NC2 | 0.7 | 30 | 1.4 | 3.1 | 21 | > 50 | 1.6 | > 50 | 1.4
20 | CC(c1nnc2n1-c1ccc(Cl)cc1C(c1ccccc1)=NC2)N(C)C (stereo unspecified) | 17.7 | > 50 | 5 | 17.7 | 17.7 | 21 | 12.5 | 10.5 | 5
21 | CCN(CC)OCc1nnc2n1-c1ccc(Cl)cc1C(c1ccccc1)=NC2 | 0.2 | 6.3 | 0.5 | 1.1 | > 50 | > 50 | 1.1 | 5.3 | 0.56
22 | CN(C)Cc1nnc2n1-c1ccc(Br)cc1C(c1ccccn1)=NC2 | 1.3 | 30 | 1 | 1.9 | 29.7 | > 50 | 1.3 | 12.5 | 1
23 | CNCc1nnc2n1-c1ccc(Cl)cc1C(c1ccccc1)=NC2 | 0.1 | 40 | 0.18 | 0.4 | > 50 | 12.5 | 0.5 | 3.7 | 0.16
24 | CN1C(=O)CN=C(c2ccccc2)c2cc(Cl)ccc21 [DIAZEPAM] | 0.035 | 0.2 | 0.28 | 0.1 | > 50 | > 50 | 2.6 | > 50 | 0.28
